Key:
Test in all cases: relative viability (nuclei count vs DMSO), 5 days (fraction); higher = more cells survive
Salubrinal + Palbociclib = compound: O=C(/C=C/c1ccccc1)NC(NC(=S)Nc1cccc2cccnc12)C(Cl)(Cl)Cl [Salubrinal] + CC(=O)c1c(C)c2cnc(Nc3ccc(N4CCNCC4)cn3)nc2n(C2CCCC2)c1=O [Palbociclib] (partner 0.5 µM)
Method in brief: (§1)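 After 5 days of treatment, lung cancer cells in 1536-well plates were fixed and stained in a single step (final 0.05% Triton X-100, 1% formaldehyde, 1 ug/ml Hoechst) and their nuclei counted on 4× images. Treatment had been applied by pin tool the day after seeding as one drug alone or as a fixed anchor-drug dose with five library-drug doses (not always all listed) in √10 steps. Relative viability is the nuclei count of treated wells divided by that of vehicle wells, and values are medians of duplicate plates.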

Salubrinal + Alpelisib = compound: O=C(/C=C/c1ccccc1)NC(NC(=S)Nc1cccc2cccnc12)C(Cl)(Cl)Cl [Salubrinal] + Cc1nc(NC(=O)N2CCC[C@H]2C(N)=O)sc1-c1ccnc(C(C)(C)C(F)(F)F)c1 [Alpelisib] (partner 2 µM)
Method in brief: as §1

Salubrinal + Tozasertib = compound: O=C(/C=C/c1ccccc1)NC(NC(=S)Nc1cccc2cccnc12)C(Cl)(Cl)Cl [Salubrinal] + Cc1cc(Nc2cc(N3CCN(C)CC3)nc(Sc3ccc(NC(=O)C4CC4)cc3)n2)n[nH]1 [Tozasertib] (partner 0.1 µM)
Method in brief: as §1

Salubrinal + Phenformin = compound: O=C(/C=C/c1ccccc1)NC(NC(=S)Nc1cccc2cccnc12)C(Cl)(Cl)Cl [Salubrinal] + N=C(N)NC(=N)NCCc1ccccc1 [Phenformin] (partner 250 µM)
Method in brief: as §1

| Cell Line | relative viability (Salubrinal + Palbociclib; first compound 0.08 µM) | relative viability (Salubrinal + Palbociclib; first compound 0.253 µM) | relative viability (Salubrinal + Palbociclib; first compound 0.8 µM) | relative viability (Salubrinal + Palbociclib; first compound 2.53 µM) | relative viability (Salubrinal + Palbociclib; first compound 8 µM) | relative viability (Salubrinal + Alpelisib; first compound 0.08 µM) | relative viability (Salubrinal + Alpelisib; first compound 0.253 µM) | relative viability (Salubrinal + Alpelisib; first compound 0.8 µM) | relative viability (Salubrinal + Alpelisib; first compound 2.53 µM) | relative viability (Salubrinal + Alpelisib; first compound 8 µM) | relative viability (Salubrinal + Tozasertib; first compound 0.08 µM) | relative viability (Salubrinal + Tozasertib; first compound 0.253 µM) | relative viability (Salubrinal + Tozasertib; first compound 0.8 µM) | relative viability (Salubrinal + Tozasertib; first compound 2.53 µM) | relative viability (Salubrinal + Tozasertib; first compound 8 µM) | relative viability (Salubrinal + Phenformin; first compound 0.08 µM) | relative viability (Salubrinal + Phenformin; first compound 0.253 µM) | relative viability (Salubrinal + Phenformin; first compound 0.8 µM) | relative viability (Salubrinal + Phenformin; first compound 2.53 µM) | relative viability (Salubrinal + Phenformin; first compound 8 µM) |
| --- | --- | --- | --- | --- | --- | --- | --- | --- | --- | --- | --- | --- | --- | --- | --- | --- | --- | --- | --- | --- |
| NCI-H838 | 0.225 | 0.244 | 0.218 | 0.247 | 0.214 | 1.03 | 0.629 | 0.969 | 1.01 | 0.942 | 0.292 | 0.246 | 0.291 | 0.25 | 0.259 | 0.657 | 0.379 | 0.695 | 0.602 | 0.622 |
| COR-L 105 | 0.311 | 0.405 | 0.364 | 0.408 | 0.385 | 1.01 | 0.906 | 1.04 | 1.06 | 0.831 | 0.665 | 0.37 | 0.312 | 0.335 | 0.328 | 0.556 | 0.479 | 0.452 | 0.511 | 0.42 |
| NCI-H2405 | 0.536 | 0.484 | 0.55 | 0.524 | 0.521 | 0.8 | 0.845 | 0.711 | 0.79 | 0.831 | 0.722 | 0.748 | 0.801 | 0.713 | 0.696 | 0.42 | 0.387 | 0.441 | 0.329 | 0.408 |
| NCI-H1395 | 0.638 | 0.648 | 0.591 | 0.62 | 0.587 | 1.19 | 1.39 | 0.999 | 1.08 | 0.911 | 0.822 | 0.849 | 0.72 | 0.714 | 0.805 | 0.473 | 0.459 | 0.451 | 0.453 | 0.431 |
| NCI-H661 | 0.424 | 0.436 | 0.412 | 0.412 | 0.398 | 0.572 | 0.864 | 0.937 | 0.845 | 0.686 | 0.367 | 0.36 | 0.373 | 0.356 | 0.37 | 0.278 | 0.283 | 0.28 | 0.288 | 0.275 |
| NCI-H1915 | 0.506 |  | 0.576 | 0.559 | 0.568 | 1.06 | 1.08 | 1.11 | 1.06 | 1.04 | 0.484 | 0.291 | 0.337 | 0.387 | 0.432 | 0.39 | 0.341 | 0.389 | 0.355 | 0.365 |
| CAL-12T | 0.459 | 0.42 | 0.676 | 0.436 | 0.328 | 1.6 | 0.712 | 1.31 | 1.17 | 1.02 | 0.32 | 0.279 | 0.323 | 0.241 | 0.241 | 0.627 | 0.485 | 0.613 | 0.578 | 0.438 |
| LXF-289 | 0.678 | 0.478 | 0.633 | 0.578 | 0.578 | 1.13 | 0.956 | 1.13 | 1.08 | 0.966 | 0.183 | 0.18 | 0.216 | 0.194 | 0.201 | 0.542 | 0.451 | 0.555 | 0.504 | 0.502 |
| NCI-H460 | 0.202 | 0.158 | 0.184 | 0.145 | 0.105 | 0.615 | 0.358 | 0.433 | 0.419 | 0.451 | 0.393 | 0.268 | 0.484 | 0.253 | 0.102 | 0.706 | 0.32 | 0.629 | 0.515 | 0.49 |
| NCI-H2009 | 0.224 | 0.171 | 0.197 | 0.225 | 0.172 | 1.16 | 1.1 | 1.19 | 1.16 | 1.07 | 0.762 | 0.733 | 0.774 | 0.718 | 0.637 | 0.534 | 0.492 | 0.489 | 0.454 | 0.411 |
| 201T | 0.355 | 0.332 | 0.413 | 0.351 | 0.374 | 1.07 | 0.999 | 1.05 | 1.02 | 1.01 | 0.873 | 0.837 | 0.933 | 0.98 | 0.967 | 0.44 | 0.32 | 0.508 | 0.462 | 0.456 |
| NCI-H23 | 0.635 | 0.387 | 0.598 | 0.46 | 0.501 | 0.839 | 0.717 | 0.763 | 0.685 | 0.976 | 0.349 | 0.393 | 0.678 | 0.305 | 0.296 | 0.84 | 0.939 | 0.8 | 0.748 | 0.814 |
| LOU-NH91 | 0.6 | 0.565 | 0.521 | 0.556 | 0.569 | 0.781 | 0.692 | 0.72 | 0.749 | 0.697 | 0.794 | 0.639 | 0.626 | 0.706 | 0.59 | 0.813 | 0.693 | 0.739 | 0.583 | 0.663 |
| NCI-H2085 | 0.457 | 0.471 | 0.484 | 0.438 | 0.427 | 1.09 | 0.879 | 0.923 | 0.936 | 0.981 | 0.96 | 0.776 | 0.854 | 0.588 | 0.77 | 0.68 | 0.634 | 0.682 | 0.749 | 0.665 |
| COR-L23 | 0.356 | 0.31 | 0.312 | 0.331 | 0.208 | 0.908 | 0.792 | 0.875 | 0.965 | 0.631 | 0.191 | 0.185 | 0.194 | 0.168 | 0.145 | 0.526 | 0.359 | 0.458 | 0.422 | 0.433 |
| BEN | 0.453 | 0.444 | 0.484 | 0.457 | 0.463 | 1.23 | 0.82 | 1.3 | 1 | 1.03 |  | 0.689 | 0.718 | 0.479 | 0.471 | 0.269 | 0.259 | 0.432 | 0.273 | 0.249 |
